Holding throughout (type): cell-based
The target of one test is T1, human GIPR (Homo sapiens, UniProt P48546).
T1 construct: host or cells: COS-7
T1 sequence (P48546 22-466): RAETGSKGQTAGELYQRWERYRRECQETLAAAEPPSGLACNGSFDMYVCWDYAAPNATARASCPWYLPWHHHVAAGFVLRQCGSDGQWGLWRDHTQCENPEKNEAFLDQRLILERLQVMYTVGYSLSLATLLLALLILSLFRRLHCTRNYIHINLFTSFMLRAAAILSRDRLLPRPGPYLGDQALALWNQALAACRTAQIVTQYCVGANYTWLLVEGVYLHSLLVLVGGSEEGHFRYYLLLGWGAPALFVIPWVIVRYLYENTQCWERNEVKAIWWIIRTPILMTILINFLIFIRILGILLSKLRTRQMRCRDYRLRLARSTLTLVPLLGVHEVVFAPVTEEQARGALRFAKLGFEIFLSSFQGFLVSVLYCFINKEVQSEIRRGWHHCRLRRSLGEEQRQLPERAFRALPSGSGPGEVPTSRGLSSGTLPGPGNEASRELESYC
Put plainly: cAMP assay (HitHunter) in transiently transfected COS-7 cells expressing human GIPR. As to conditions: for Emax: COS-7, normalized to highest concentration of the endogenous ligand, read-out: Efficacy GIPR (Emax). Here is the method:
(§1) The next day the assay was initiated by washing with HEPES buffered saline (HBS) and followed by an incubation step with assay buffer (HBS added 1 mM isobutyl-1-methylxanthine (IBMX)) for 30 min at 37° C. The ligands were then added and incubated for an additional 30 min at 37° C. After ligand incubation, the HitHunter® CAMP assay (Eurofins DiscoverX, Fremont, […] USA) was carried out according to the manufacturer's instructions. […] The potencies (EC50 values) were determined by nonlinear regression using GraphPad Prism 9 (San Diego, California, USA). Sigmoid curves were fitted logistically. The efficacies (Emax values) were determined by normalization to the highest concentration applied of the endogenous ligand for each receptor.
A general note: cAMP levels reflect the balance of adenylyl cyclase and phosphodiesterase activity.

A further test addresses T2, human GLP-2R (Homo sapiens, UniProt O95838).
T2 construct: host or cells: COS-7
T2 sequence (O95838 1-553): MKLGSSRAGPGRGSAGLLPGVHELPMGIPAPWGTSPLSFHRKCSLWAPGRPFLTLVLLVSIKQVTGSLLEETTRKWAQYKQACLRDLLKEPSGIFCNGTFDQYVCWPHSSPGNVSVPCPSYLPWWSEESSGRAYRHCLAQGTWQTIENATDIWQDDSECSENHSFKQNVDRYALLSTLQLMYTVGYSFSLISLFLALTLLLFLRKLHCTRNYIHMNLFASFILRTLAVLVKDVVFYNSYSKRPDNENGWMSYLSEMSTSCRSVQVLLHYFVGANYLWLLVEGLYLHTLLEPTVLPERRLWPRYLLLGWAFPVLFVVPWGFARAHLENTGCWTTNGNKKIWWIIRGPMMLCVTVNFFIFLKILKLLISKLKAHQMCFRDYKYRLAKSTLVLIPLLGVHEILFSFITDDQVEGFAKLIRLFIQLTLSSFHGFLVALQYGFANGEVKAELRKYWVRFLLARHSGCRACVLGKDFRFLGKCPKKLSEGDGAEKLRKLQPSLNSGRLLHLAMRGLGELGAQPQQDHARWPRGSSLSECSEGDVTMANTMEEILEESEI
Put plainly: cAMP assay (HitHunter) in transiently transfected COS-7 cells expressing human GLP-2R. The settings on record: for Emax: COS-7, normalized to highest concentration of the endogenous ligand, read-out: Efficacy GLP-2R (Emax). How it is done: as §1

The next test has as its target T3, human GLP-1R (Homo sapiens, UniProt P43220).
T3 construct: host or cells: COS-7
Put plainly: cAMP assay (HitHunter) in transiently transfected COS-7 cells expressing human GLP-1R. The settings on record: for Emax: COS-7, normalized to highest concentration of the endogenous ligand, read-out: Efficacy GLP-1R (Emax). Here is the method: as §1

Where [1] appears, read: cAMP, COS-7 cells, human GLP-2R, read-out: EC50 (nM) GLP-2R.

Like-named read-outs stand apart in the source and are kept apart here. Where a SMILES comes first, the peptide text is derived from it. [ ]: non-standard residue; d: D form. The star is where a group is joined. Decanoyl = CCCCCCCCCC(=O)*; Aib = CC(C)(N)C(=O)O

T3 sequence (P43220 24-463): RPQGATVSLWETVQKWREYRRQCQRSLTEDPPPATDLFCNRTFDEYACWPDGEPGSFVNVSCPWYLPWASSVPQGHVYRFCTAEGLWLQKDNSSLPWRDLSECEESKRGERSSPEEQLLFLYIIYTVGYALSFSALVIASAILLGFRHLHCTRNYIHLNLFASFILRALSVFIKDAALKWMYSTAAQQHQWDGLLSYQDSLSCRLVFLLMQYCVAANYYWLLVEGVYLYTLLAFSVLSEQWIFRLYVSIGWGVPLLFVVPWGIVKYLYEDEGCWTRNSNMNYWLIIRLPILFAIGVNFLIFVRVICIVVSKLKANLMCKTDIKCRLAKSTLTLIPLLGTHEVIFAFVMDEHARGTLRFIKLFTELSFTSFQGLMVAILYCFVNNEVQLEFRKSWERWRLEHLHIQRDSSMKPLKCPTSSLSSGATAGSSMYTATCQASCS

What is called Emax is the maximal effect, on the per cent scale that the assay sets. In general, EC50 refers to the concentration at which the effect is half-maximal. `CCCCCCCCCC(=O)NCCCC[C@H](NC(=O)[C@@H](NC(=O)[C@@H](NC(=O)[C@H](CCCCN)NC(=O)[C@@H](NC(=O)[C@H](CCC(N)=O)NC(=O)[C@@H](NC(=O)[C@H](CC(C)C)NC(=O)[C@H](Cc1c[nH]c2ccccc12)NC(=O)[C@H](CC(N)=O)NC(=O)[C@@H](NC(=O)[C@H](Cc1ccccc1)NC(=O)[C@H](CC(=O)O)NC(=O)[C@H](CCCNC(=N)N)NC(=O)[C@H](C)NC(=O)[C@H](C)NC(=O)[C@H](CC(C)C)NC(=O)[C@H](CC(N)=O)NC(=O)[C@H](CC(=O)O)NC(=O)[C@H](CC(C)C)NC(=O)[C@@H](NC(=O)[C@@H](NC(=O)[C@H](CO)NC(=O)[C@H](Cc1ccc(O)cc1)NC(=O)[C@H](CC(=O)O)NC(=O)[C@H](CO)NC(=O)[C@@H](NC(=O)[C@H](Cc1ccccc1)NC(=O)[C@@H](NC(=O)CNC(=O)[C@H](CC(=O)O)NC(=O)C(C)(C)NC(=O)[C@@H](N)Cc1c[nH]cn1)[C@@H](C)O)[C@@H](C)CC)[C@@H](C)CC)[C@@H](C)CC)[C@@H](C)CC)[C@@H](C)CC)[C@@H](C)O)[C@@H](C)CC)[C@@H](C)O)C(N)=O` [Compound 10] (H-H[Aib]DGTFISDYSIILDNLAARDFINWLIQTKITK(Decanoyl)-NH2): the Emax was 127% at human GIPR, 103% at human GLP-2R and 99% at human GLP-1R. The EC50 was found to be 11.2 nM on human GLP-2R and 3.98 nM on human GLP-1R.

`CCCCCCCCCC(=O)NCCCC[C@H](NC(=O)[C@@H](NC(=O)[C@@H](NC(=O)[C@H](CCCCN)NC(=O)[C@@H](NC(=O)[C@H](CCC(N)=O)NC(=O)[C@@H](NC(=O)[C@H](CC(C)C)NC(=O)[C@H](Cc1c[nH]c2ccccc12)NC(=O)[C@H](CC(N)=O)NC(=O)[C@@H](NC(=O)[C@H](Cc1ccccc1)NC(=O)[C@H](CC(=O)O)NC(=O)[C@H](CCCNC(=N)N)NC(=O)[C@H](C)NC(=O)[C@H](C)NC(=O)[C@H](CC(C)C)NC(=O)[C@H](CC(N)=O)NC(=O)[C@H](CC(=O)O)NC(=O)[C@H](CC(C)C)NC(=O)[C@@H](NC(=O)[C@@H](NC(=O)[C@H](CO)NC(=O)[C@H](Cc1ccc(O)cc1)NC(=O)[C@H](CC(=O)O)NC(=O)[C@H](CO)NC(=O)[C@@H](NC(=O)[C@H](Cc1ccccc1)NC(=O)[C@@H](NC(=O)CNC(=O)[C@H](CCC(=O)O)NC(=O)C(C)(C)NC(=O)[C@@H](N)Cc1c[nH]cn1)[C@@H](C)O)[C@@H](C)CC)[C@@H](C)O)[C@@H](C)CC)[C@@H](C)CC)[C@@H](C)CC)[C@@H](C)O)[C@@H](C)CC)[C@@H](C)O)C(N)=O` [Compound 11] (H-H[Aib]EGTFISDYSTILDNLAARDFINWLIQTKITK(Decanoyl)-NH2): the Emax on human GIPR came to 89%; at human GLP-2R it was 68%; at human GLP-1R, 76%. At human GLP-2R (setting [1]), the EC50 is 25.1 nM.

As to `CCCCCCCCCC(=O)NCCCC[C@H](NC(=O)[C@@H](NC(=O)[C@@H](NC(=O)[C@H](CCCCN)NC(=O)[C@@H](NC(=O)[C@H](CCC(N)=O)NC(=O)[C@@H](NC(=O)[C@H](CC(C)C)NC(=O)[C@H](Cc1c[nH]c2ccccc12)NC(=O)[C@H](CC(N)=O)NC(=O)[C@@H](NC(=O)[C@H](Cc1ccccc1)NC(=O)[C@H](CC(=O)O)NC(=O)[C@H](CCCNC(=N)N)NC(=O)[C@H](C)NC(=O)[C@H](C)NC(=O)[C@H](CC(C)C)NC(=O)[C@H](CC(N)=O)NC(=O)[C@H](CC(=O)O)NC(=O)[C@H](CC(C)C)NC(=O)[C@H](CCC(=O)O)NC(=O)[C@@H](NC(=O)[C@H](CO)NC(=O)[C@H](Cc1ccc(O)cc1)NC(=O)[C@H](CC(=O)O)NC(=O)[C@H](CO)NC(=O)[C@@H](NC(=O)[C@H](Cc1ccccc1)NC(=O)[C@@H](NC(=O)CNC(=O)[C@H](CC(=O)O)NC(=O)C(C)(C)NC(=O)[C@@H](N)Cc1c[nH]cn1)[C@@H](C)O)[C@@H](C)CC)[C@@H](C)O)[C@@H](C)CC)[C@@H](C)CC)[C@@H](C)O)[C@@H](C)CC)[C@@H](C)O)C(N)=O` [Compound 13] (H-H[Aib]DGTFISDYSTELDNLAARDFINWLIQTKITK(Decanoyl)-NH2), the maximum response (Emax) was 117% on human GIPR, 86% at human GLP-2R and 85% on human GLP-1R. In addition, the EC50 on human GLP-2R (setting [1]) is 25.1 nM; on human GLP-1R (cAMP, COS-7 cells, human GLP-1R, read-out: EC50 (nM) GLP-1R), 25.1 nM.

For the compound `CCCCCCCCCC(=O)NCCCC[C@H](NC(=O)[C@H](CCCCN)NC(=O)CNC(=O)[C@H](CCCCN)NC(=O)[C@@H](NC(=O)[C@H](CCC(N)=O)NC(=O)[C@@H](NC(=O)[C@H](CC(C)C)NC(=O)[C@H](Cc1c[nH]c2ccccc12)NC(=O)[C@H](CC(N)=O)NC(=O)[C@@H](NC(=O)[C@H](Cc1ccccc1)NC(=O)[C@H](CC(=O)O)NC(=O)[C@H](CCCNC(=N)N)NC(=O)[C@H](C)NC(=O)[C@H](C)NC(=O)[C@H](CC(C)C)NC(=O)[C@H](CC(N)=O)NC(=O)[C@H](CC(=O)O)NC(=O)[C@H](CC(C)C)NC(=O)[C@@H](NC(=O)[C@@H](NC(=O)[C@H](CO)NC(=O)[C@H](Cc1ccc(O)cc1)NC(=O)[C@H](CC(=O)O)NC(=O)[C@H](CO)NC(=O)[C@@H](NC(=O)[C@H](Cc1ccccc1)NC(=O)[C@@H](NC(=O)CNC(=O)[C@H](CC(=O)O)NC(=O)C(C)(C)NC(=O)[C@@H](N)Cc1c[nH]cn1)[C@@H](C)O)[C@@H](C)CC)[C@@H](C)O)[C@@H](C)CC)[C@@H](C)CC)[C@@H](C)CC)[C@@H](C)O)C(N)=O` [Compound 14] (H-H[Aib]DGTFISDYSTILDNLAARDFINWLIQTKGKK(Decanoyl)-NH2), the Emax was 91% at human GIPR, 92% at human GLP-2R and 96% on human GLP-1R.

Consider `CCCCCCCCCC(=O)NCCCC[C@H](NC(=O)[C@@H](NC(=O)[C@@H](NC(=O)[C@H](CCCCN)NC(=O)[C@@H](NC(=O)[C@H](CCC(N)=O)NC(=O)[C@@H](NC(=O)[C@H](CC(C)C)NC(=O)[C@H](Cc1c[nH]c2ccccc12)NC(=O)[C@H](CC(N)=O)NC(=O)[C@@H](NC(=O)[C@H](Cc1ccccc1)NC(=O)[C@H](CC(=O)O)NC(=O)[C@H](CCCNC(=N)N)NC(=O)[C@H](C)NC(=O)[C@H](C)NC(=O)[C@H](CC(C)C)NC(=O)[C@H](CC(N)=O)NC(=O)[C@H](CC(=O)O)NC(=O)[C@H](CC(C)C)NC(=O)[C@@H](NC(=O)[C@@H](NC(=O)[C@H](CO)NC(=O)[C@H](Cc1ccc(O)cc1)NC(=O)[C@H](CC(=O)O)NC(=O)[C@H](CO)NC(=O)[C@@H](NC(=O)[C@H](Cc1ccccc1)NC(=O)[C@@H](NC(=O)CNC(=O)[C@H](CC(=O)O)NC(=O)C(C)(C)NC(=O)[C@@H](N)Cc1ccc(O)cc1)[C@@H](C)O)[C@@H](C)CC)[C@@H](C)O)[C@@H](C)CC)[C@@H](C)CC)[C@@H](C)CC)[C@@H](C)O)[C@@H](C)CC)[C@@H](C)O)C(N)=O` [Compound 16] (H-Y[Aib]DGTFISDYSTILDNLAARDFINWLIQTKITK(Decanoyl)-NH2; N-terminus assumed), for which the Emax on human GIPR worked out at 99%; at human GLP-2R, 93%; on human GLP-1R, 59%. This compound also gave a concentration giving a half-maximal response (EC50) at human GIPR (cAMP, COS-7 cells, human GIPR) of 1 nM.

In the case of `CCCCCCCCCC(=O)N[C@@H](CCC(=O)NCCCC[C@H](NC(=O)[C@@H](NC(=O)[C@@H](NC(=O)[C@H](CCCCN)NC(=O)[C@@H](NC(=O)[C@H](CCC(N)=O)NC(=O)[C@@H](NC(=O)[C@H](CC(C)C)NC(=O)[C@H](Cc1c[nH]c2ccccc12)NC(=O)[C@H](CC(N)=O)NC(=O)[C@@H](NC(=O)[C@H](Cc1ccccc1)NC(=O)[C@H](CC(=O)O)NC(=O)[C@H](CCCNC(=N)N)NC(=O)[C@H](C)NC(=O)[C@H](C)NC(=O)[C@H](CC(C)C)NC(=O)[C@H](CC(N)=O)NC(=O)[C@H](CC(=O)O)NC(=O)[C@H](CC(C)C)NC(=O)[C@@H](NC(=O)[C@@H](NC(=O)[C@H](CO)NC(=O)[C@H](Cc1ccc(O)cc1)NC(=O)[C@H](CC(=O)O)NC(=O)[C@H](CO)NC(=O)[C@@H](NC(=O)[C@H](Cc1ccccc1)NC(=O)[C@@H](NC(=O)CNC(=O)[C@H](CC(=O)O)NC(=O)C(C)(C)NC(=O)[C@@H](N)Cc1c[nH]cn1)[C@@H](C)O)[C@@H](C)CC)[C@@H](C)O)[C@@H](C)CC)[C@@H](C)CC)[C@@H](C)CC)[C@@H](C)O)[C@@H](C)CC)[C@@H](C)O)C(N)=O)C(=O)O` [Compound 17], the Emax on human GIPR was 97%; on human GLP-2R, 92%; on human GLP-1R, 107%.

The values are drawn from US20250304644A1, “PEPTIDES TRIPLE AGONISTS OF GIP, GLP-1 AND GLP-2” (BAINAN BIOTECH APS, priority 2021, published 2025).
